pKi: −log10 of the molar value. Values joined by “and” are separate entries in the source; they are usually repeats but may differ in a detail not shown here. Equal values may be shown once. Read-outs that look alike come from different tables or passages of the source.

In assay [1] the target is T1, human recombinant adrenergic α2B receptor (Homo sapiens, UniProt P18089).
T1 construct: expressed in transfected cells; host or cells: CHO-K1
T1 sequence (P18089 1-450): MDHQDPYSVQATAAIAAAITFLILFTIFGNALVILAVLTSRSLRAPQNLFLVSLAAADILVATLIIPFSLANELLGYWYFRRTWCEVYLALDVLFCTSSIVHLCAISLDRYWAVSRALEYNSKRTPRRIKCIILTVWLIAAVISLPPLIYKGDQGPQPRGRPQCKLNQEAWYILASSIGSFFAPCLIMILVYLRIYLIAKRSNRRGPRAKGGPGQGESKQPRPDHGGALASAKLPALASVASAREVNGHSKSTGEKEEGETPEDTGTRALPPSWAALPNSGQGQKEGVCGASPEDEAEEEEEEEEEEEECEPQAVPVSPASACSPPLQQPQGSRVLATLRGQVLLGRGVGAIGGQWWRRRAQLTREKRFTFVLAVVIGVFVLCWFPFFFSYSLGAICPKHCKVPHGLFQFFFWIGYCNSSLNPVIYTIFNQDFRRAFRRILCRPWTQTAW
The experiment in a line: Radioligand binding, adrenergic α2B ([3H]Rauwolscine). As to conditions: for pKi: read-out: Ki α2B. An outline of the steps: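 Values are percent inhibition of specific radioligand binding. The receptor, expressed in CHO-K1 cells, was exposed to 2.5 nM [3H]Rauwolscine at 25° C for 60 min, with 10 μM Prazosin marking non-specific binding.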

The target of assay [2] is T2, human recombinant adrenergic α2A receptor (Homo sapiens, UniProt P08913).
T2 construct: expressed in transfected cells; host or cells: insect Sf9 cells
T2 sequence (P08913 1-465): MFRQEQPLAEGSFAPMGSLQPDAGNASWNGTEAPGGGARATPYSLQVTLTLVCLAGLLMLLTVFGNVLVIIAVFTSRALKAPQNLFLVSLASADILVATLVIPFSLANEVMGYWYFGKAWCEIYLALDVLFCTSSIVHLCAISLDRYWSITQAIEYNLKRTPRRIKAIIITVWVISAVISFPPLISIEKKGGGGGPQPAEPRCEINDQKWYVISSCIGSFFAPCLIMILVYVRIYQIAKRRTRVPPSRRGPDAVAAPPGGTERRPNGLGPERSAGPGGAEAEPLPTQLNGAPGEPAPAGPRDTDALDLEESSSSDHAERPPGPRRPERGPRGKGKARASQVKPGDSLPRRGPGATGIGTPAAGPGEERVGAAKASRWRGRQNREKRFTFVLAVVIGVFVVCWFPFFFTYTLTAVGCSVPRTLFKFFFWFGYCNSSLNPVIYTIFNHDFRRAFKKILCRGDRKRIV
As to the kind of experiment: Radioligand binding, adrenergic α2A ([3H]MK-912). In a few lines: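 In 50 mM Tris-HCl (pH 7.4) containing 12.5 mM MgCl2 and 2 mM EDTA, Sf9-expressed receptor was exposed to test compound plus 1 nM [3H]MK-912 at 25 °C for 60 min. Specific binding, corrected using 10 μM WB-4101, was quantified by filtration and counting and expressed as percent inhibition.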

In assay [3] the target is T3, rat adrenergic α1B receptor (Rattus norvegicus, UniProt P15823).
T3 construct: rat adrenergic α1B receptor obtained from Wistar Rat liver; from tissue; host or cells: Wistar rat liver
T3 sequence (P15823 1-515): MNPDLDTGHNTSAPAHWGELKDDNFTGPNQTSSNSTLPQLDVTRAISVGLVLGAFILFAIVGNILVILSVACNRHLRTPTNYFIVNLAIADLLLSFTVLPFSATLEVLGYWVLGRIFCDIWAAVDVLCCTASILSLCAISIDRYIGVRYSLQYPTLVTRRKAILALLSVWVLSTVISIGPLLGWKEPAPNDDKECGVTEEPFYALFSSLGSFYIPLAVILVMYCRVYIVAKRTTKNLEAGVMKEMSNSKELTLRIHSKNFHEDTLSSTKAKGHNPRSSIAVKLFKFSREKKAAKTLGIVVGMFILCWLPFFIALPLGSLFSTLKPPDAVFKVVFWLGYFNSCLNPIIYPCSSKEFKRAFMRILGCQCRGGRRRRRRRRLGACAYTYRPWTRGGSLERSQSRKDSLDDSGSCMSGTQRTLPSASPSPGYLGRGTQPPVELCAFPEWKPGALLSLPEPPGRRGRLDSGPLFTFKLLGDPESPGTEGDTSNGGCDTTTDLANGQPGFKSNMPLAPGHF
The experiment in a line: Radioligand binding, adrenergic α1B ([3H]Prazosin). In a few lines:
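Filter binding with Wistar rat liver α1B preparation: test compound plus 0.25 nM [3H]prazosin, 1 h at 25° C in modified Tris-HCl buffer pH 7.4.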

Assay [4] deals with T4, human recombinant adrenergic α1D receptor (Homo sapiens, UniProt P25100).
T4 construct: expressed in transfected cells; host or cells: HEK-293
T4 sequence (P25100 1-572): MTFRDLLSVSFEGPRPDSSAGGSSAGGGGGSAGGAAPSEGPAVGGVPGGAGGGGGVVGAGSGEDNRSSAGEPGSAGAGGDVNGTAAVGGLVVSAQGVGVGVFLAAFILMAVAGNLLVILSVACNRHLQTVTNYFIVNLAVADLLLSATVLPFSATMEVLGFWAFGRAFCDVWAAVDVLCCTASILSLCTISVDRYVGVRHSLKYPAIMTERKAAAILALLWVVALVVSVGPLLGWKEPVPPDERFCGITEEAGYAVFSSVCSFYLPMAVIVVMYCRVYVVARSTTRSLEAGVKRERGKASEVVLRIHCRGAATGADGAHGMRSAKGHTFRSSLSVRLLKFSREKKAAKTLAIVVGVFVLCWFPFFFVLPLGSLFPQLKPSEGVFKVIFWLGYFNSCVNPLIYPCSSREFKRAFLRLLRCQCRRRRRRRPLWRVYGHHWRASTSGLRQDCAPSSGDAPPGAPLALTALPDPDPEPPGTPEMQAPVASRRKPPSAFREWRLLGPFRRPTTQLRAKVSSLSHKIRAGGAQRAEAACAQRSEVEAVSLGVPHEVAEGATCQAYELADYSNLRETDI
As to the kind of experiment: Radioligand binding, adrenergic α1D ([3H]Prazosin). How it is done:
Compounds were incubated with 0.6 nM [3H]Prazosin for 60 min at 25° C. Non-specific binding was estimated in the presence of 10 μM phentolamine. Receptor proteins were filtered and washed, the filters were then counted to determine [3H]Prazosin specifically bound. […] Biochemical assay results are presented as the percent inhibition of specific binding in Table B1.

Where [5] appears, read: read-out: Percentage inhibition of ligand binding, Adrenergic α2B (0.1 μM), compound at 0.1 μM, [3H]Rauwolscine, repeat datapoints each shown.
The mark [6] stands for this setting: read-out: Percentage inhibition of ligand binding, Adrenergic α2A (0.1 μM), compound at 0.1 μM, [3H]MK-912, repeat datapoints each shown.
Setting [7] is: read-out: Percentage inhibition of ligand binding, Adrenergic α1B (0.1 μM), compound at 0.1 μM, [3H]Prazosin, repeat datapoints each shown.
Setting [8] is: read-out: Percentage inhibition of ligand binding, Adrenergic α1D (0.1 μM), compound at 0.1 μM, [3H]Prazosin, repeat datapoints each shown.
Setting [9] is: compound at 0.03 μM, [3H]Rauwolscine, repeat assays, each datapoint shown, read-out: Percentage inhibition of ligand binding, Adrenergic α2B.
[10] abbreviates: compound at 0.1 μM, [3H]Rauwolscine, repeat assays, each datapoint shown, read-out: Percentage inhibition of ligand binding, Adrenergic α2B.
Setting [11] is: compound at 0.1 μM, [3H]MK-912, repeat assays, each datapoint shown, read-out: Percentage inhibition of ligand binding, Adrenergic α2A.
The mark [12] stands for this setting: compound at 0.1 μM, [3H]Prazosin, repeat assays, each datapoint shown, read-out: Percentage inhibition of ligand binding, Adrenergic α1B.
Where [13] appears, read: compound at 0.1 μM, [3H]Prazosin, repeat assays, each datapoint shown, read-out: Percentage inhibition of ligand binding, Adrenergic α1D.
[14] abbreviates: 0.1 μM compound, read-out: Percentage inhibition of ligand binding, Adrenergic α2B.
Setting [15] is: 0.1 μM compound, read-out: Percentage inhibition of ligand binding, Adrenergic α2A.
Where [16] appears, read: 0.1 μM compound, read-out: Percentage inhibition of ligand binding, Adrenergic α1B.
Setting [17] is: 0.1 μM compound, read-out: Percentage inhibition of ligand binding, Adrenergic α1D.

A word on the inhibition: it is the percentage by which the read-out fell short of the control. Consider `C/C(=C\n1c2c(c3cc(C)ccc31)CNCC2)c1ccncc1` [compound 103], for which the inhibition at 0.1 µM in assay [1] (setting [5]) was 80%; in assay [2] (setting [6]), 19%; in assay [3] (setting [7]) it was 49%; in assay [4] (setting [8]), 20%.

For orientation: pKi means −log10 of the Ki, conventionally taken in molar units. For the compound `CN1CCc2c(c3cc(Cl)ccc3n2CCc2cccnc2)C1` [compound 60], the inhibition at 0.03 µM in assay [1] (setting [9]) amounted to 66%. The inhibition at 0.1 µM in assay [1] (setting [10]) is 93%; in assay [2] (setting [11]) it was 26%; in assay [3] (setting [12]), 65%; in assay [4] (setting [13]) it was 35%. For the same compound, the pKi in assay [1] is 8.23.

For the compound `COc1ccc2c(c1)c1c(n2/C=C(/C)c2ccncc2)CCN(C)C1` [compound 100], the inhibition at 0.1 µM in assay [1] (setting [5]) came to 72%; in assay [2] (setting [6]) it was 20%; in assay [3] (setting [7]), 73%; in assay [4] (setting [8]), 47%.

As for `C/C(=C\n1c2c(c3cc(C)ccc31)CN(C)CC2)c1ccc(F)nc1` [II-96], the inhibition at 0.1 µM in assay [1] (setting [14]) was determined as 95%; in assay [2] (setting [15]), 49%; in assay [3] (setting [16]), 39%; in assay [4] (setting [17]), 31%.

For the compound `Cc1ccc2c(c1)c1c(n2C2=C(c3cnc(N(C)C)nc3)CCC2)CCN(C)C1` [compound 303, 5-(2-(2,8-dimethyl-3,4-dihydro-1H-pyrido[4,3-b]indol-5(2H)-yl)cyclopent-1-enyl)-N,N-dimethylpyrimidin-2-amine], the inhibition at 0.1 µM in assay [1] (setting [14]) is 71%; in assay [2] (setting [15]), 62%; in assay [3] (setting [16]), 16%; in assay [4] (setting [17]), 51%.

On to `C/C(=C\n1c2c(c3cc(C)cc(C)c31)CN(C)CC2)c1ccncc1` [compound 312], for which the inhibition at 0.1 µM in assay [1] (setting [14]) stood at 93%; in assay [2] (setting [15]) it was 56%; in assay [3] (setting [16]) it was 71%; in assay [4] (setting [17]) it was 50%.

As for `Cc1ccc2c(c1)c1c(n2CCc2nc(-c3ccc(Cl)cc3)cs2)CCN(C)C1` [compound 326], the inhibition at 0.1 µM in assay [1] (setting [14]) was 93%; in assay [2] (setting [15]), 51%; in assay [3] (setting [16]), 33%; in assay [4] (setting [17]) it was 35%.

As to `Cc1ccc2c(c1)c1c(n2CC(C)(O)c2ccc(F)cc2)CCN(C)C1` (stereo not shown) [compound 90], the inhibition at 0.1 µM in assay [1] (setting [10]) was found to be 91%; in assay [4] (setting [13]), 20%. In addition, the “Percentage inhibition of ligand binding, Adrenergic α2A” value in assay [2] (compound at 0.1 μM, [3H]MK-912, repeat assays, each datapoint shown, 0.1 µM) is listed as 22%. Moreover, in assay [3] (compound at 0.1 μM, [3H]Prazosin, repeat assays, each datapoint shown, 0.1 µM), the “Percentage inhibition of ligand binding, Adrenergic α1B” value was 57%.

For `Cc1ccc2c(c1)c1c(n2CCc2ccc(Cl)cc2)CCN(C)C1` [compound 184, 5-(4-Chlorophenethyl)-2,3,4,5-tetrahydro-2,8-dimethyl-1H-pyrido[4,3-b]indole], the inhibition at 0.03 µM in assay [1] (read-out: Percentage inhibition of ligand binding, Adrenergic α2B (0.03 μM), compound at 0.03 μM, [3H]Rauwolscine, repeat datapoints each shown) was found to be 95%; in assay [3] (read-out: Percentage inhibition of ligand binding, Adrenergic α1B (0.03 μM), compound at 0.03 μM, [3H]Prazosin, repeat datapoints each shown) it was 60%; in assay [4] (read-out: Percentage inhibition of ligand binding, Adrenergic α1D (0.03 μM), compound at 0.03 μM, [3H]Prazosin, repeat datapoints each shown) it was 24%. In addition, the pKi in assay [2] is 6.74. The inhibition at 0.1 µM in assay [2] (setting [6]) turned out to be 93%.

For `C/C(=C\n1c2c(c3cc(C)ccc31)CCN(C)CC2)c1cccnc1` [compound 245], the inhibition at 0.1 µM in assay [1] (setting [14]) turned out to be 96%; in assay [2] (setting [15]), 65%; in assay [3] (setting [16]) it was 69%; in assay [4] (setting [17]), 35%.

Consider `C/C(=C\c1ccccc1)n1c2c(c3cc(C)ccc31)CN(C)CC2` [compound 265], for which the inhibition at 0.1 µM in assay [1] (setting [14]) is 70%; in assay [2] (setting [15]) it was 67%; in assay [3] (setting [16]) it was 50%; in assay [4] (setting [17]), 30%.

`CCc1ccc(CCn2c3c(c4cc(C)ccc42)CN(C)CC3)cn1` [compound 89]: in assay [1] (setting [9]), the inhibition at 0.03 µM was 25%. Moreover, the “Percentage inhibition of ligand binding, Adrenergic α2B” value in assay [1] (compound at 0.1 μM, [3H]Rauwolscine, repeat assays, each datapoint shown, 0.1 µM) was 57% and 79%. Moreover, the pKi in assay [1] was 7.49. The inhibition at 0.1 µM was 23% in assay [2] (setting [11]), 79% in assay [3] (setting [12]) and 68% in assay [4] (setting [13]).

With `CN1CCc2c(n(CC(C)(O)c3ccc(F)cc3)c3ccc(Cl)cc23)CC1` (stereo not shown) [compound 221], the inhibition at 0.1 µM in assay [1] (setting [5]) was found to be 80%; in assay [2] (setting [6]) it was 56%; in assay [3] (setting [7]) it was 65%; in assay [4] (setting [8]), 16%.

With `Cc1ccc(CCn2c3c(c4c(Cl)c(Cl)ccc42)CN(C)CC3)cn1` [compound 319], the inhibition at 0.1 µM in assay [1] (setting [14]) turned out to be 4%; in assay [2] (setting [15]), 63%; in assay [3] (setting [16]) it was 13%; in assay [4] (setting [17]), 8%.

Source of the values: US8791132B2, “Compounds and methods for treatment of hypertension” (Medivation Technologies, Inc., priority 2011, dated 2014).
